Laboratory results taken from patent publication US20260158008A1, “POLYMORPHS OF THE MESYLATE SALT OF LINAPRAZAN GLURATE” (Cinclus Pharma Holding AB (Publ), priority 2021, published 2026).
Where two headings read alike, the source gives them in different places.

Legend:
[1] = cited from earlier work
[2] = Dynamic vapour sorption (DVS) analysis, hygroscopicity / water content; format: physicochemical
Description: Analyses were performed on an SMS DVS-1 instrument.
(§1) Method 1: A few mg of the substance was added into an Al pan and exposed to stepwise RH changes during two identical consecutive cycles according to 0-10-20-30-40-50-60-70-80-90-80-70-60-50-40-30-20-10-0% RH using open loop mode. The experiments were performed using a gas flow rate of 200 ml/min and at 25° C. The dm/dt criteria applied were 0.001 weight-%/min during a 5-minutes window, with a maximum allowed time of 360 minutes and a minimum allowed time of 10 minutes for all steps, except for the first stage which was set to a 12-hours fix time.
as §1, with “2:” for “1:”, “steps.” for “steps, except for the first stage which was set to a 12-hours fix time.”
as §1, with “3:” for “1:”, “6-hours” for “12-hours”
The hygroscopicity of sample 1 of Form A (obtained from a slurry in 2-propanol) was investigated using method 1. […]
For sample 2 of Form A (obtained from a slurry in acetone), a TGA-dried sample was investigated using method 2. […] In the second cycle, “pure” water absorption and desorption is recorded. […]

[3] = XRPD check of solid form after TGA or DVS; format: physicochemical
Description: Analyses were performed on a PanAlytical X'Pert Pro diffractometer equipped with a Cu-anode (45 kV, 40 mA), a Kα-1 Johansson monochromator (1.540598 Å) and a Pixcel detector. The 2-theta range was 2-35°, using a step size of 0.013° and a scan speed of 0.10°/s (“6 minutes scan”) or 0.03°/s (“20 minutes scan”). Slow spinning sample holders were used. The samples were smeared out on zero background wafers of Si, producing a flat powdered surface. The measurements were performed using a programmable incident divergency slit.
Method 1: A few mg of sample was gently charged into open Pt-pans and analysed by weight in a flow of dry nitrogen gas (20 mL/min), to ensure an inert atmosphere, from 25 to 140° C. using a continuous scan speed of 10° C./min, followed by an isothermal step at 140° C. for 60 minutes (ended manually if the drying process was completed before 60 minutes).
as §1, with “2:” for “1:”, “steps.” for “steps, except for the first stage which was set to a 12-hours fix time.”

[4] = up to 24 hours
Description: The solubility of Form A in Fed State Simulated Gastric Fluid (FEDGAS) mid stage, second version of Fasted State Simulated Intestinal Fluid (FaSSIF-V2) and second version of Fed State Simulated Intestinal Fluid (FeSSIF-V2) was studied.
To 90 mL of Milli Q water were added 139 mg of NaOH, 222 mg of maleic acid and 401 mg of NaCl and the resulting mixture was stirred until fully dissolved. The pH was adjusted to 6.5 with 1 M HCl and 1 M NaOH, and made up to 100 mL with Milli Q water. 179 mg of FaSSIF-V2 (Biorelevant, batch V2FAS-1020-A) was mixed with the prepared 100 ml of buffer, stirred until fully dissolved and equilibrated at RT for 1 hour before use.
To 90 ml of Milli Q water were added 327 mg of NaOH, 639 mg of maleic acid and 733 mg of NaCl and the resulting mixture was stirred until fully dissolved. The pH was adjusted to 5.8 with 1 M HCl and 1 M NaOH, and made up to 100 mL with Milli Q water. 976 mg of FeSSIF-V2 (Biorelevant, batch V2FES-1020-A) was mixed with the prepared 100 ml of buffer, stirred until fully dissolved and equilibrated at RT for 1 hour before use. […]
Saturated solutions were prepared in 4 ml vials by adding fixed weights (excess amounts) of Form A to 2 mL of each of the different buffer solutions. […] Concentrations were calculated from a calibration curve based on 7 calibration standards (stock solutions of 100 and 250 μg/mL, and serial dilutions thereof).

[5] = Plasma concentration after oral administration of linaprazan glurate; format: in vivo, human
gastric acid production [6] = conditions: cited from earlier work
gastric acid production [7] = conditions: cited from earlier work; remark: listed apart in the source

Cc1cccc(C)c1CNc1cc(C(=O)NCCOC(=O)CCCC(=O)O)cn2c(C)c(C)nc12 [Form A (free base)]
solubility in water ([1]; pH 1): only slightly soluble | solubility in water ([1]; pH 6.8): practically insoluble

CS(=O)(=O)O.Cc1cccc(C)c1CNc1cc(C(=O)NCCOC(=O)CCCC(=O)O)cn2c(C)c(C)nc12 [Form A]
water uptake with relative humidity ([2]; 0 to 90% RH, 25° C.): increases almost linearly with increasing relative humidity | stability at relative humidity ([2]; relative humidity up to 90%, 25° C.): stable | solid form after the TGA experiment (XRPD) ([3]; after heating 25 to 140° C., TGA method 1): this form remained | solid form after the DVS-analysis (XRPD) ([3]; after two cycles 0-90% RH, 25° C.): this form remained | solubility in FEDGAS relative to FaSSIF-V2 ([4]; FEDGAS mid stage pH 4.5 vs FaSSIF-V2 pH 6.5, 37° C.): about 20 times higher | solubility in FEDGAS relative to FeSSIF-V2 ([4]; FEDGAS mid stage pH 4.5 vs FeSSIF-V2 pH 5.8, 37° C.): about 7 times higher

CS(=O)(=O)O.Cc1cccc(C)c1CNc1cc(C(=O)NCCOC(=O)CCCC(=O)O)cn2c(C)c(C)nc12 [Form B]
water content ([2]; at 80% RH): about 3.4%

Cc1cccc(C)c1CNc1cc(C(=O)NCCOC(=O)CCCC(=O)O)cn2c(C)c(C)nc12 [linaprazan glurate, 5-{2-[({8-[(2,6-dimethylbenzyl)amino]-2,3-dimethylimidazo[1,2-a]pyridine-6-yl}carbonyl)-amino]ethoxy}-5-oxopentanoic acid]
metabolism following absorption into the blood stream ([5]; in vivo): quickly metabolized into linaprazan | plasma concentration ([5]; in vivo): only very low and difficult to determine | control of gastric acid production compared to linaprazan (gastric acid production [6]; human, in vivo): total control of the gastric acid production for a longer time | half-life in the body compared to linaprazan (gastric acid production [6]; human, in vivo): longer half-life in the body | time for which intragastric acidity is maintained above pH 4 (gastric acid production [6]; single dose, clinical Phase I study): 24 hours

Cc1cccc(C)c1CNc1cc(C(=O)NCCO)cn2c(C)c(C)nc12 [linaprazan]
concentration at 22 h ([5]; human, plasma, oral, after 22 hours, estimated from Phase I studies of linaprazan glurate, read-out: minimal plasma concentration (Cmin) of linaprazan required to maintain intra-gastric pH above 4 for 24 hours): ≥ 240 nM | onset of action (gastric acid production [7]; Phase I and II studies): fast onset of action and full effect at first dose | tolerability (gastric acid production [7]; Phase I and II studies): well tolerated | duration of acid inhibition (gastric acid production [7]; in vivo): too short duration of acid inhibition | elimination (gastric acid production [7]; in vivo): quickly eliminated from the body
